Test results published in the NIST ThermoML archive (doi:10.1021/je8008649).

Experiment: mn = molality of the nth substance listed, in mol/kg
Details: 101 kPa, Liquid

N.N.O=S(=O)(O)O [ammonium sulfate] + O
m1 = 4.655
Details | mass density [kg/m3] | viscosity [mPa·s]
293.15 K | 1217.66 | –
298.15 K | 1215.79 | 2.114
303.15 K | 1213.89 | 1.944
308.15 K | 1211.94 | 1.785
313.15 K | 1209.97 | –

NO.O=S(=O)(O)O [hydroxylammonium hydrogen sulfate] + O
Details | mass density, 283.15 K [kg/m3] | mass density, 288.15 K [kg/m3] | mass density, 293.15 K [kg/m3] | mass density, 298.15 K [kg/m3] | mass density, 303.15 K [kg/m3] | mass density, 308.15 K [kg/m3] | mass density, 313.15 K [kg/m3] | viscosity, 298.15 K [mPa·s] | viscosity, 303.15 K [mPa·s] | viscosity, 308.15 K [mPa·s]
m1 = 0.0075 | 1000.57 | 999.95 | 999.03 | 997.89 | 996.46 | 994.84 | 993 | – | – | –
m1 = 0.0204 | – | – | – | – | – | – | – | 0.897 | 0.806 | 0.727
m1 = 0.038 | 1003.84 | 1003.18 | 1002.23 | 1001.03 | 999.59 | 997.95 | 996.09 | – | – | –
m1 = 0.0473 | – | – | – | – | – | – | – | 0.909 | 0.814 | 0.736
m1 = 0.0702 | 1007.27 | 1006.56 | 1005.58 | 1004.34 | 1002.88 | 1001.17 | 999.12 | 0.914 | 0.821 | 0.741
m1 = 0.2199 | 1022.47 | 1021.57 | 1020.43 | 1019.05 | 1017.48 | 1015.7 | 1013.04 | – | – | –
m1 = 0.2315 | – | – | – | – | – | – | – | 0.968 | 0.869 | 0.787
m1 = 0.3709 | 1036.87 | 1035.81 | 1034.52 | 1033.05 | 1031.38 | 1029.51 | 1027.24 | 1.019 | 0.912 | 0.823
m1 = 0.4314 | 1042.64 | 1041.22 | 1039.97 | 1038.36 | 1036.73 | 1034.77 | 1032.85 | 1.035 | 0.927 | 0.838
m1 = 0.5334 | 1051.59 | 1050.39 | 1048.98 | 1047.39 | 1045.61 | 1043.69 | 1041.6 | 1.069 | 0.961 | 0.867
m1 = 0.8069 | 1075.32 | 1073.9 | 1071.96 | 1070.2 | 1068.3 | 1066.3 | 1064.15 | 1.167 | 1.053 | 0.95
m1 = 0.9684 | 1088.31 | 1086.8 | 1085.12 | 1083.29 | 1081.32 | 1079.23 | 1076.98 | – | – | –
m1 = 1.044 | – | – | – | – | – | – | – | 1.256 | 1.128 | 1.02
m1 = 1.165 | 1103.23 | 1101.58 | 1099.81 | 1097.89 | 1095.85 | 1093.7 | 1091.42 | – | – | –
m1 = 1.324 | – | – | – | – | – | – | – | 1.369 | 1.237 | 1.112
m1 = 1.478 | 1126.68 | 1124.91 | 1123 | 1120.96 | 1118.82 | 1116.5 | 1113.63 | – | – | –
m1 = 1.589 | – | – | – | – | – | – | – | 1.483 | 1.333 | 1.201
m1 = 1.851 | 1151.94 | 1149.99 | 1147.92 | 1145.49 | 1142.34 | 1141.16 | 1138.36 | – | – | –
m1 = 1.915 | – | – | – | – | – | – | – | 1.631 | 1.463 | 1.319
m1 = 2.088 | – | – | – | – | – | – | – | 1.732 | 1.542 | 1.386
m1 = 2.461 | 1188.98 | 1186.87 | 1184.69 | 1182.41 | 1180.07 | 1177.64 | 1175.14 | – | – | –
m1 = 2.847 | – | – | – | – | – | – | – | 2.123 | 1.887 | 1.702
m1 = 2.998 | 1218.05 | 1215.84 | 1213.55 | 1211.21 | 1208.79 | 1206.32 | 1203.99 | – | – | –
